How the values were obtained:
Type in all cases: cell-based
[1] = system: transcriptional activity of TEADs; test: TEAD reporter assay (MCF7 TEAD-LUC reporter cells); conditions: Homo sapiens, 24 hours, BrightGlo luminescence
Method in brief: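 Luminescence (BrightGlo) was read after 24 h of compound treatment at 37 °C, 5 % CO2. Cells had been seeded at 5,000 per well in DMEM with 10 % FBS and insulin and rested 24 h first. Dosing used 20 points, 1:2 dilution from 20 μM final, triplicates.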

NCI-H226 cells [2] = test: NCI-H226 proliferation assay (Wuxi AppTec); conditions: Homo sapiens, 168 h, 7 days, CellTiter-Glo, top dose 10, 3-fold dilution, 9 doses
Protocol: […] Proliferation Assay (From Wuxi AppTec CO.):
Day −1: Seeding cells • (1) Equilibrate cell culture medium to 37° C. • (2) Remove and discard the culture medium. • (3) Briefly rinse the cell layer with PBS to remove all traces of serum that contains […]. • (4) Add 2-3 mL of Trypsin-EDTA solution to flask and observe cells under an inverted microscope until cell layer is dispersed. • (5) Add 6-8 mL of growth medium to terminate the digestion of Trypsin/EDTA. • (6) Centrifuge the mixture (Trypsin EDTA and the growth medium) at 1000 rpm for 5 mins. • (7) Discard the supernatant, suspend the cell precipitation with the fresh growth medium, then take 1 mL the cell suspension to count cells with Vi-cell XR cell viability analyzer. • (8) Adjust the cell density to 500 cells/well for 384-well plates. • (9) Add 50 µL/well volume cell suspension to the assay plate. • (10) Add […] media to the control columns. • (11) Incubate the plate at 37° C., 5% CO2 for overnight. Day 0: Compounds treatment • (1) Add cpds to each well by Tecan HP D300E. The top dose is […], 3-fold dilution and 9 doses. DMSO final concentration will be normalized to 0.2%. • (2) Incubate the assay plate at 37° C., 5% CO2 for 7 days. Day 7: Plate read • (1) Equilibrate the assay plate to the room temperature for nearly 30 minutes. • (2) Add […] CellTiter-Glo reagent to each well and shake the plate for 1 min, incubate 10 min and keep them from light. • (3) Detect the plate by EnVision. Data analysis:
Max: Average of the DMSO group Min: Average of medium group.

NCI-H226 cells [3] = test: NCI-H226 proliferation assay (in house); conditions: Homo sapiens, 120 h, 5 days, Cell TiterGlo, 20-point 1:2 dilution from 20 μM
Method in brief: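 Viability by CellTiter-Glo luminescence after 5-day compound exposure at 37 °C, 5% CO2. Compounds added 24 h post-seeding (500 cells/well, RPMI 1640 with 10% FBS) as 20-point, 2-fold series from 20 μM final, triplicate wells.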

Compound | IC50 [1] [nM] | IC50 (NCI-H226 cells [2]) [µM] | IC50 (NCI-H226 cells [3]) [µM]
C=CC(=O)N1CCC(c2nccnc2Nc2ccc(C(F)(F)F)cn2)CC1 [Example 44, 1-(4-(3-((5-(trifluoromethyl)pyridin-2-yl)amino)pyrazin-2-yl)piperidin-1-yl)prop-2-en-1-one] | 1.4 | 0.02 | 0.012
C=CC(=O)N1CCN(c2nccnc2Nc2ccc(OC(F)(F)F)nc2)CC1 [Example 48, 1-(4-(3-((6-(trifluoromethoxy)pyridin-3-yl)amino)pyrazin-2-yl)piperazin-1-yl)prop-2-en-1-one] | 0.7 | 0.032 | 0.023
C=CC(=O)N1CC=C(c2nccnc2Nc2cnc(C(F)(F)F)nc2)CC1 [Example 59, 1-(4-(3-((2-(trifluoromethyl)pyrimidin-5-yl)amino)pyrazin-2-yl)-3,6-dihydropyridin-1(2H)-yl)prop-2-en-1-one] |  | 0.1 | 
C=CC(=O)N1CC=C(c2nccnc2Oc2ccc(C(F)(F)F)cn2)CC1 [Example 74, 1-(4-(3-((5-(trifluoromethyl)pyridin-2-yl)oxy)pyrazin-2-yl)-3,6-dihydropyridin-1(2H)-yl)prop-2-en-1-one] | 2.4 | 0.121 | 0.449
C=CC(=O)N1CCN(c2nccnc2Oc2cnc(C(F)(F)F)nc2)CC1 [Example 87, 1-(4-(3-((2-(trifluoromethyl)pyrimidin-5-yl)oxy)pyrazin-2-yl)piperazin-1-yl)prop-2-en-1-one] | 1.4 | 0.047 | 0.025
C=CC(=O)N1CCC(n2nccc2C(=O)c2ccc(C(F)(F)F)cc2)CC1 [Example 164, 1-(4-(5-(4-(trifluoromethyl)benzoyl)-1H-pyrazol-1-yl)piperidin-1-yl)prop-2-en-1-one] | 0.4 | 0.045 | 
C=CC(=O)N1CCN(c2nc(C)ncc2Nc2ccc(C(F)(F)F)cc2)CC1 [Example 128, 1-(4-(2-methyl-5-((4-(trifluoromethyl)phenyl)amino)pyrimidin-4-yl)piperazin-1-yl)prop-2-en-1-one] | 1.6 | 0.082 | 0.179
C=C(F)C(=O)N1CC=C(c2nccnc2Oc2ccc(C(F)(F)F)nc2)CC1 [Example 85, 2-fluoro-1-(4-(3-((6-(trifluoromethyl)pyridin-3-yl)oxy)pyrazin-2-yl)-3,6-dihydropyridin-1(2H)-yl)prop-2-en-1-one] | 1.6 | 0.011 | 0.016
N#C/C=C/C(=O)N1CCN(c2nccnc2Nc2ccc(C(F)(F)F)cc2)CC1 [Example 181, (E)-4-oxo-4-(4-(3-((4-(trifluoromethyl)phenyl)amino)pyrazin-2-yl)piperazin-1-yl)but-2-enenitrile] | 0.44 | 0.026 | 0.034
C=CC(=O)N1CC=C(c2cccnc2Nc2ccc(C(F)(F)F)nc2)CC1 [Example 145, 1-(2-((6-(trifluoromethyl)pyridin-3-yl)amino)-3′,6′-dihydro-[3,4′-bipyridin]-1′(2′H)-yl)prop-2-en-1-one] | 2.4 | 0.017 | 0.029
C=C(F)C(=O)N1CC=C(c2nccnc2Nc2cnc(C(F)(F)F)nc2)CC1 [Example 60, 2-fluoro-1-(4-(3-((2-(trifluoromethyl)pyrimidin-5-yl)amino)pyrazin-2-yl)-3,6-dihydropyridin-1(2H)-yl)prop-2-en-1-one] |  | 1.31 | 
C=CC(=O)N1CCN(c2nccnc2OC2CCC(C(F)(F)F)CC2)CC1 (stereo not drawn) [Example 94, 1-(4-(3-((4-(trifluoromethyl)cyclohexyl)oxy)pyrazin-2-yl)piperazin-1-yl)prop-2-en-1-one] | 0.84 | 0.017 | 0.018
C=C(F)C(=O)N1CCN(c2nccnc2Oc2cnc(C(F)(F)F)nc2)CC1 [Example 88, 2-fluoro-1-(4-(3-((2-(trifluoromethyl)pyrimidin-5-yl)oxy)pyrazin-2-yl)piperazin-1-yl)prop-2-en-1-one] | 1.9 | 0.027 | 0.047
C=CC(=O)N1CCN(c2ccnnc2Nc2ccc(C(F)(F)F)cn2)CC1 [Example 120, 1-(4-(3-((5-(trifluoromethyl)pyridin-2-yl)amino)pyridazin-4-yl)piperazin-1-yl)prop-2-en-1-one] |  | 0.205 | 
C=CC(=O)N1CCC(O)(c2nccnc2Oc2ccc(C(F)(F)F)nc2)CC1 [Example 83, 1-(4-hydroxy-4-(3-((6-(trifluoromethyl)pyridin-3-yl)oxy)pyrazin-2-yl)piperidin-1-yl)prop-2-en-1-one] |  | 0.263 | 
C=C(F)C(=O)N1CCC(c2nc(C)cnc2Oc2ccc(C(F)(F)F)nc2)CC1 [Example 115, 2-fluoro-1-(4-(6-methyl-3-((6-(trifluoromethyl)pyridin-3-yl)oxy)pyrazin-2-yl)piperidin-1-yl)prop-2-en-1-one] |  | 0.041 | 0.074
C=C(F)C(=O)N1CC=C(c2nccnc2Nc2ccc(OC(F)(F)F)nc2)CC1 [Example 58, 2-fluoro-1-(4-(3-((6-(trifluoromethoxy)pyridin-3-yl)amino)pyrazin-2-yl)-3,6-dihydropyridin-1(2H)-yl)prop-2-en-1-one] |  | 0.283 | 
C=CC(=O)N1CCN(c2nccnc2Nc2ccc(C#N)cc2)CC1 [Example 38, 4-((3-(4-acryloylpiperazin-1-yl)pyrazin-2-yl)amino)benzonitrile] |  | 0.42 | 
C=CC(=O)N1CCN(c2nccnc2Nc2ccc(C(F)(F)F)c(OC)c2)CC1 [Example 37, 1-(4-(3-((3-methoxy-4-(trifluoromethyl)phenyl)amino)pyrazin-2-yl)piperazin-1-yl)prop-2-en-1-one] |  | 0.078 | 
C=C(F)C(=O)N1CCC(c2nccnc2Oc2cnc(C(F)(F)F)nc2)CC1 [Example 92, 2-fluoro-1-(4-(3-((2-(trifluoromethyl)pyrimidin-5-yl)oxy)pyrazin-2-yl)piperidin-1-yl)prop-2-en-1-one] |  | 1.12 | 5.64
C=CC(=O)N1CCN(c2ccnnc2Nc2ccc(C(F)(F)F)nc2)CC1 [Example 121, 1-(4-(3-((6-(trifluoromethyl)pyridin-3-yl)amino)pyridazin-4-yl)piperazin-1-yl)prop-2-en-1-one] |  | 1.4 | 
C=CC(=O)N1CC=C(c2cccnc2Nc2ccc(OC(F)(F)F)nc2)CC1 [Example 147, 1-(2-((6-(trifluoromethoxy)pyridin-3-yl)amino)-3′,6′-dihydro-[3,4′-bipyridin]-1′(2′H)-yl)prop-2-en-1-one] | 2.3 | 0.149 | 
C=CC(=O)N1CC=C(c2nccnc2Nc2ccc(OC(F)(F)F)nc2)CC1 [Example 57, 1-(4-(3-((6-(trifluoromethoxy)pyridin-3-yl)amino)pyrazin-2-yl)-3,6-dihydropyridin-1(2H)-yl)prop-2-en-1-one] |  | 0.036 | 
C=C(F)C(=O)N1CCC(c2nccnc2Oc2ccc(C(F)(F)F)cn2)CC1 [Example 76, 2-fluoro-1-(4-(3-((5-(trifluoromethyl)pyridin-2-yl)oxy)pyrazin-2-yl)piperidin-1-yl)prop-2-en-1-one] |  | 0.104 | 0.424
C=CC(=O)N1CCC(c2nccnc2Oc2cnc(C(F)(F)F)nc2)CC1 [Example 91, 1-(4-(3-((2-(trifluoromethyl)pyrimidin-5-yl)oxy)pyrazin-2-yl)piperidin-1-yl)prop-2-en-1-one] |  | 0.042 | 0.075

Reference: patent US20250206722A1, “SMALL MOLECULE INHIBITORS OF TEA DOMAIN FAMILY MEMBERS” (The Scripps Research Institute, priority 2022, published 2025)
